The values below are quoted from earlier work in patent US20020165594A1, “Apparatus and method of photodynamic eradication of organisms utilizing pyrrolnitrin” (Merrill A. Biel, priority 2001, published 2002).

For the data set the following is noted: orally and intravenously in high doses.

For `CN(C)c1ccc2nc3ccc(=[N+](C)C)cc-3sc2c1` [Methylene blue], the “toxic effects on administration to humans” value is recorded as “without any toxic effects”.
